Broadly, the inhibition is the change of the read-out against control, counted positive when it falls. A word on the IC50: it is the concentration that inhibits the measured activity by half. A high value points to weaker potency in that assay.

SMILES strings stand for the structures.

One assay concerns A. nidulans 200092. The assay is described as follows: Spore germination with indicator/electron donor added at T0, viewed microscopically. Type of assay: cell-based. As to conditions: added at the same time as spores (T0), no viability at 48 hours. The procedure: Spores from a frozen stock of A. nidulans 200092 at 1.63×10^7/ml) were diluted to 5×10^3/ml to yield 500 spores per well in yeast extract with glucose broth supplemented with lysine and uridine.
Tetrazolium salts (listed in Table 1) were each dissolved to 1 mg/ml in phosphate-buffered saline (PBS) or water, aliquotted, and frozen. Electron coupling agents phenazine methosulfate (PMS; lot 194-03) and menadione (MEN; lot 170-95) were prepared at 5 mM in PBS and 10 mM in acetone, respectively. Cultures had no electron coupling reagent added, PMS (120 μl of PMS per 12 ml of tetrazolium salt) or MEN (42 μl per 12 ml of tetrazolium salt). Each well received 25 μl of indicator.
Indicator (with or without electron coupling reagent) was added at the same time as spores (T0), following ˜24 hours of incubation (T24), or following ˜48 hours of incubation (T48). Wells were viewed ˜2 hours post addition. NC denotes no color seen.
Microscopically, when compared to wells that had no indicator added or had PMS added, it was evident that the spores were present but had not germinated. At 48 hours, these same wells still had not shown any signs of viability.

The test system of assay [1] is Aspergillus nidulans 200092. In words: MTS/MEN growth inhibition assay, OD490.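 Also: fungal spore suspensions in 96-well plates with MTS/MEN indicator, absorbance read after 2 h and again after further development up to 24 h, controls containing medium only.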
Experimental: Spores from a frozen stock of Aspergillus nidulans 200092 (at 1.63×10^7/ml) were diluted to 5×10^3/ml to yield 500 spores per well in yeast extract with glucose broth supplemented with lysine and uridine.
MEN was added at a ratio of 42 μl MEN per 12 ml of MTS. Each well received 25 μl indicator.
98 μl of the spore suspension was added to the wells of a 96 well plate. Control wells received media only. […] Plates were then incubated for 2 hours and then read at OD490. MTS/MEN was then allowed to develop for an additional period of time up to 24 hours and the plates was re-read.
The mark [2] stands for this setting: Aspergillus nidulans, 200092, 2 h.
Where [3] appears, read: Aspergillus nidulans, 200092, 24 h.

On to `COc1cc(-c2ccc(-n3nc(-c4ccccc4)n[n+]3-c3ccccc3)c(OC)c2)ccc1-n1nc(-c2ccccc2)n[n+]1-c1ccccc1` [BT, Tetrazolium Blue Chloride], for which, in the assay with A. nidulans 200092, the “germination or growth of the spores” value is on record as “inhibit germination or growth of the spores”.

With `Clc1ccccc1C(c1ccccc1)(c1ccccc1)n1ccnc1` [Clotrimazole, clotrimazole], in assay [1] (setting [2]), the inhibition at 0.0039 µg/mL stood at 15.8%, the inhibition at 0.0078 µg/mL came to 35.4%, the inhibition at 0.0156 µg/mL was 26% and the inhibition at 0.0313 µg/mL came out at 56.8%. In addition, in assay [1] (setting [2]), the inhibition at 0.0625 µg/mL amounted to 86.5%, the inhibition at 0.125 µg/mL is 94.6%, the inhibition at 0.25 µg/mL came out at 93% and the inhibition at 0.5 µg/mL was 93%. In assay [1] (setting [2]), the inhibition at 1 µg/mL was determined as 94.5%, the inhibition at 2 µg/mL was found to be 93.4%, the inhibition at 4 µg/mL worked out at 95.8% and the inhibition at 8 µg/mL worked out at 94.4%. Besides, in assay [1] (setting [2]), the inhibition at 16 µg/mL turned out to be 94.4%, the inhibition at 32 µg/mL worked out at 91.5% and the inhibition at 64 µg/mL came to 86%. Further, in assay [1] (setting [3]), the inhibition at 0.0039 µg/mL is 6.6%, the inhibition at 0.0078 µg/mL worked out at 48.5%, the inhibition at 0.0156 µg/mL was 47.2% and the inhibition at 0.0313 µg/mL turned out to be 70.1%. In addition, in assay [1] (setting [3]), the inhibition at 0.0625 µg/mL stood at 77%, the inhibition at 0.125 µg/mL was 93.6%, the inhibition at 0.25 µg/mL worked out at 91.6% and the inhibition at 0.5 µg/mL is 92%. In addition, in assay [1] (setting [3]), the inhibition at 1 µg/mL stood at 93.9%, the inhibition at 2 µg/mL was 92.3%, the inhibition at 4 µg/mL turned out to be 96.2% and the inhibition at 8 µg/mL turned out to be 94.2%. In assay [1] (setting [3]), the inhibition at 16 µg/mL worked out at 93.4%, the inhibition at 32 µg/mL was 92.1% and the inhibition at 64 µg/mL was 91.9%.

With `O=[N+]([O-])c1ccc(-[n+]2nc(-c3ccccc3)nn2-c2ccc(I)cc2)cc1.[Cl-]` [INT, p-Iodonitrotetrazolium Violet], in the assay with A. nidulans 200092, the “germination or growth of the spores” value is listed as “inhibit germination or growth of the spores”.

In the case of `CC1=CC(=O)c2ccccc2C1=O` [MEN, menadione], the “germination or growth of the spores” value in the assay on A. nidulans 200092 was “inhibit germination or growth of the spores”.

Take `C[n+]1cc2c3c(ccc2c2ccc4cc5c(cc4c21)OCO5)OCO3` [Sanguinarine, sanguinarine]: in assay [1] (setting [2]), the midpoint of inhibition, the IC50, lay at 1.42 µg/mL; the inhibition at 0.0061 µg/mL came out at 16.2%; the inhibition at 0.0122 µg/mL is -3.1%; the inhibition at 0.0244 µg/mL worked out at 15.6%. For the same molecule, in assay [1] (setting [2]), the inhibition at 0.0488 µg/mL is 15.7%, the inhibition at 0.0977 µg/mL worked out at 42.9%, the inhibition at 0.1953 µg/mL came to 10.2% and the inhibition at 0.3906 µg/mL amounted to 33.8%. Moreover, in assay [1] (setting [2]), the inhibition at 0.7813 µg/mL came out at 45%, the inhibition at 1.5625 µg/mL came out at 49.6%, the inhibition at 3.125 µg/mL came out at 50.8% and the inhibition at 6.25 µg/mL turned out to be 86.9%. In assay [1] (setting [2]), the inhibition at 12.5 µg/mL is 89.4%, the inhibition at 25 µg/mL stood at 88.4%, the inhibition at 50 µg/mL amounted to 77.3% and the inhibition at 100 µg/mL came out at 53.3%. For the same molecule, in assay [1] (setting [2]), the inhibition at 200 µg/mL worked out at 7%. For the same molecule, in assay [1] (setting [3]), the IC50 turned out to be 2.77 µg/mL, the inhibition at 0.0061 µg/mL is 10.9%, the inhibition at 0.0122 µg/mL is -1.7% and the inhibition at 0.0244 µg/mL amounted to 5.1%. In addition, in assay [1] (setting [3]), the inhibition at 0.0488 µg/mL amounted to 7.9%, the inhibition at 0.0977 µg/mL turned out to be 18.4%, the inhibition at 0.1953 µg/mL was -2.4% and the inhibition at 0.3906 µg/mL turned out to be 12.6%. Moreover, in assay [1] (setting [3]), the inhibition at 0.7813 µg/mL is 19.7%, the inhibition at 1.5625 µg/mL worked out at 39.8%, the inhibition at 3.125 µg/mL was found to be 42.2% and the inhibition at 6.25 µg/mL stood at 86.7%. Further, in assay [1] (setting [3]), the inhibition at 12.5 µg/mL turned out to be 93.7%, the inhibition at 25 µg/mL turned out to be 92.4%, the inhibition at 50 µg/mL amounted to 91.7% and the inhibition at 100 µg/mL stood at 87.5%. Moreover, in assay [1] (setting [3]), the inhibition at 200 µg/mL is 79.5%.

For the molecule `COc1cc(-c2ccc(-[n+]3nc(-c4ccc([N+](=O)[O-])cc4)nn3-c3ccc([N+](=O)[O-])cc3)c(OC)c2)ccc1-[n+]1nc(-c2ccc([N+](=O)[O-])cc2)nn1-c1ccc([N+](=O)[O-])cc1.[Cl-].[Cl-]` [TNTB, Tetranitro Blue Tetrazolium], in the assay with A. nidulans 200092, the “germination or growth of the spores” value is on record as “inhibit germination or growth of the spores”.

For the molecule `c1ccc(-c2nn(-c3ccccc3)[n+](-c3cccc4ccccc34)n2)cc1` [TV, Tetrazolium Violet], the “germination or growth of the spores” value in the assay on A. nidulans 200092 was “inhibit germination or growth of the spores”.

The record behind these values is US20020028479A1, “Methods for the detection of fungal growth” (priority 2000, published 2002).
